Test results as given in ChEMBL document CHEMBL1138957, “Discovery and SAR of 2-amino-5-(thioaryl)thiazoles as potent and selective Itk inhibitors” (Bioorg Med Chem Lett, 2006).

Experiments:
Jurkat = assay: Inhibition of IL2 production in Jurkat T cells; format: functional, cell-based; details: Homo sapiens
Mus musculus [1] = species: Mus musculus; assay: Stability in mouse liver microsomes assessed as degradation rate per mg of protein; format: ADME
[2] = molecular target: T1, Tyrosine-protein kinase ITK/TSK (Homo sapiens, UniProt Q08881); assay: Inhibition of Itk
T1 sequence (Q08881 whole entry): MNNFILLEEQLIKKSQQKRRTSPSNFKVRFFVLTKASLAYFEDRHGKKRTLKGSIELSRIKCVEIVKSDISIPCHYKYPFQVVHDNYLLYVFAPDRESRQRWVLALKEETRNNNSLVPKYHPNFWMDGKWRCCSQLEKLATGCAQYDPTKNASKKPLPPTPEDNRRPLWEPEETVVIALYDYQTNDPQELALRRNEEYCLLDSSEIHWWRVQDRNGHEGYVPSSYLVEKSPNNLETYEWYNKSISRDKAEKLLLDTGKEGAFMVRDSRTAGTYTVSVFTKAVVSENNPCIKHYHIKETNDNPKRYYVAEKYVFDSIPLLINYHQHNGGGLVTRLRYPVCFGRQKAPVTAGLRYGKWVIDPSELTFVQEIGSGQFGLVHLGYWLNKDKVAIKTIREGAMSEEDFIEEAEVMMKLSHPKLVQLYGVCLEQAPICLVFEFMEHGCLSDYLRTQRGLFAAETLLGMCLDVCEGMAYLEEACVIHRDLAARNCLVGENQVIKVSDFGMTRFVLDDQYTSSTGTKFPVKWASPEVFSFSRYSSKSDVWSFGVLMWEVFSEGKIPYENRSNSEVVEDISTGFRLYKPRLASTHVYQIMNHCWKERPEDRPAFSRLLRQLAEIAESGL

[3] = Oral bioavailability in mice at 20 mg/kg, po; format: ADME, organism-based; details: mouse, in vivo
[4] = Clearance in mice at 10 mg/kg, iv; format: ADME, organism-based; parameters: dose 10 mg/kg, route intravenous; details: mouse, in vivo
[5] = Mean residence time in mice at 20 mg/kg, po; format: ADME, organism-based; parameters: dose 20 mg/kg, route oral; details: mouse, in vivo
[6] = Half life in mice at 20 mg/kg, po; format: ADME, organism-based; parameters: dose 20 mg/kg, route oral; details: mouse, in vivo
[7] = Tmax in mice at 20 mg/kg, po; format: ADME, organism-based; parameters: dose 20 mg/kg, route oral; details: mouse, in vivo
[8] = Mean residence time in mice at 10 mg/kg, iv; format: ADME, organism-based; parameters: dose 10 mg/kg, route intravenous; details: mouse, in vivo
[9] = molecular target: Tyrosine-protein kinase SYK (Homo sapiens, UniProt P43405); assay: Inhibition of Syk
[10] = Cmax in mice at 20 mg/kg, po; format: ADME, organism-based; parameters: dose 20 mg/kg, route oral; details: mouse, in vivo
Mus musculus [11] = assay: Inhibition of anti CD3-induced IL2 production in mice serum at 50 mg/kg, sc; format: functional; details: route subcutaneous
[12] = Half life in mice at 10 mg/kg, iv; format: ADME, organism-based; parameters: dose 10 mg/kg, route intravenous; details: mouse, in vivo
Mus musculus [13] = assay: Inhibition of anti CD3-induced IL2 production in mice serum at 50 mg/kg, sc after 1.75 hrs; format: functional; details: route subcutaneous
[14] = Volume of distribution in mice at 10 mg/kg, iv; format: ADME, organism-based; parameters: dose 10 mg/kg, route intravenous; details: mouse, in vivo, read-out: Vss
EL4 = assay: cells; details: Mus musculus
[15] = Tmax in mice at 10 mg/kg, iv; format: ADME, organism-based; parameters: dose 10 mg/kg, route intravenous; details: mouse, in vivo

Structure (SMILES)	IC50 (Jurkat)	Stability (Mus musculus [1]; mouse)	also measured
O=C(O)C1CCCN(C(=O)c2cc(Sc3cnc(Nc4cccc(Br)n4)s3)ccc2O)C1 (stereo not drawn)	> 50000 nM	< 0.1 nmol/min/mg	–
CS(=O)(=O)NC(=O)C1CCCN(C(=O)c2cc(Sc3cnc(Nc4cccc(Br)n4)s3)ccc2O)C1 (stereo not drawn)	> 10000 nM	–	Stability (Mus musculus [1]): < 0.1 nmol/min
COc1cc(C)c(Sc2cnc(Nc3cc(C)cc(C)n3)s2)cc1C(=O)N1CCN(C(C)=O)CC1	230 nM	–	–
COc1cc(C)c(Sc2cnc(NC(=O)c3ccc(OC(C)C)cc3)s2)cc1C(=O)N1CCN(C(C)=O)CC1	360 nM	–	–
COc1cc(C)c(Sc2cnc(NC(=O)c3ccc(N(C)C)cc3)s2)cc1C(=O)N1CCN(C(C)=O)CC1	280 nM	–	–
COc1cc(C)c(Sc2cnc(NC(=O)c3ccc[nH]3)s2)cc1C(=O)N1CCN(C(C)=O)CC1	250 nM	–	–
COc1cc(C)c(Sc2cnc(NC(=O)C3CC3)s2)cc1C(=O)N1CCN(C(C)=O)CC1	690 nM	> 0.3 nmol/min/mg	–
CC(=O)N1CCN(C(=O)c2cccc(Sc3cnc(Nc4cccnc4)s3)c2)CC1	–	–	IC50 [2]: > 50000 nM
CC(=O)N1CCN(C(=O)c2cccc(Sc3cnc(NC(=O)c4ccc(N(C)C)cc4)s3)c2C)CC1	–	–	IC50 [2]: > 25000 nM
CCN1CCN(C(=O)c2cc(Sc3cnc(NC(=O)C4CC4)s3)c(C)cc2OC)CC1	1000 nM	> 0.3 nmol/min/mg	–
COc1cc(C)c(Sc2cnc(NC(=O)c3ccc(CNC(C)C(C)(C)C)cc3)s2)cc1C(=O)N1CCN(C(C)=O)CC1 (stereo not drawn)	–	–	IC50 (Protein kinase C (PKC)): 24000 nM; bioavailability [3]: 6.4%; clearance [4]: 116 mL/min/kg; MRT [5]: 3.1 h; half-life [6]: 1.4 h; Tmax [7]: 1 h; MRT [8]: 1 h; IC50 [9]: > 50000 nM; Cmax [10]: 69 nM; inhibition in vivo at 50 mg/kg (Mus musculus [11]): 50%; half-life [12]: 1.3 h; Activity (Mus musculus [13]): 1.89 µM; Vd [14]: 7 L/kg; IC50 (EL4): 70 nM; Tmax [15]: 3 min
CC(=O)N1CCN(C(=O)c2cc(Sc3cnc(Nc4ccccn4)s3)ccc2O)CC1	2180 nM	–	–
COc1cc(C)c(Sc2cnc(NC(=O)C3CC3C(=O)O)s2)cc1C(=O)N1CCN(C(C)=O)CC1 (stereo not drawn)	25300 nM	< 0.1 nmol/min/mg	–
CC(=O)N1CCN(C(=O)c2cc(CSc3cnc(NC(=O)c4ccc(CNC(C)C(C)(C)C)cc4)s3)cc(C)c2C)CC1 (stereo not drawn)	700 nM	–	–
O=C(O)C1CCN(C(=O)c2cc(Sc3cnc(Nc4cccc(Br)n4)s3)ccc2O)CC1	> 50000 nM	< 0.1 nmol/min/mg	–
CC(=O)N1CCN(C(=O)c2cccc(CSc3cnc(NC(=O)c4ccc(N(C)C)cc4)s3)c2)CC1	22000 nM	–	–

Now from value to compound, other results behind:

IC50 (Jurkat)	Stability (Mus musculus [1]; mouse)	Structure (SMILES)	also measured
3400 nM	–	CCNCc1ccc(C(=O)Nc2ncc(Sc3cc(C(=O)N4CCN(C(C)=O)CC4)c(OC)cc3C)s2)cc1	–
420 nM	–	COCc1ccc(C(=O)Nc2ncc(Sc3cc(C(=O)N4CCN(C(C)=O)CC4)c(OC)cc3C)s2)cc1	–
370 nM	> 0.3 nmol/min/mg	CC(=O)N1CCN(C(=O)c2cc(Sc3cnc(Nc4cccc(Br)n4)s3)ccc2O)CC1	–
24000 nM	–	CC(=O)N1CCN(C(=O)c2cccc(Sc3cnc(Nc4ccccn4)s3)c2)CC1	–
460 nM	–	CC(=O)N1CCN(C(=O)c2cc(Sc3cnc(Nc4cc(C)cc(C)n4)s3)ccc2O)CC1	–
> 10000 nM	< 0.1 nmol/min/mg	CN(CC(=O)O)C(=O)c1cc(Sc2cnc(Nc3cccc(Br)n3)s2)ccc1O	–
260 nM	0.1 nmol/min/mg	CNCc1ccc(C(=O)Nc2ncc(Sc3cc(C(=O)N4CCOCC4)c(OC)cc3C)s2)[nH]1	–
210 nM	0.1 nmol/min/mg	COc1cc(C)c(Sc2cnc(NC(=O)C3CC3)s2)cc1C(=O)N1CCN(C(=O)CN(C)C)CC1	–
